We go through 38 molecules from ChEMBL document CHEMBL1154643, “Biaryl purine derivatives as potent antiproliferative agents: inhibitors of cyclin dependent kinases. Part I” (Bioorg Med Chem Lett, 2009).

SMILES strings stand for the structures.

In experiment [1] the target is Cyclin-dependent kinase 2/cyclin A (Homo sapiens, UniProt P24941). Kind of experiment: Inhibition of recombinant CDK2/cyclin A. In kind it is protein-complex assay.
Experiment [2] addresses Cyclin-dependent kinase 2/cyclin E (Homo sapiens, UniProt P24941). Nature of the experiment: Inhibition of recombinant CDK2/cyclin E. In kind it is protein-complex assay.
Experiment [3] in a line: Antiproliferative activity against human HeLaS3 cells by sulforhodamine B assay. In kind it is functional. The note with it: HeLa S3.

Consider `CC(C)n1cnc2c(NCc3ccc(-c4cccc(Cl)c4)cc3)nc(N[C@H]3CC[C@H](N)CC3)nc21`, for which the half-maximal inhibitory concentration (IC50) in experiment [1] and in experiment [2] was 400 nM throughout.

`COc1cccc(-c2ccc(CNc3nc(N[C@H]4CC[C@H](N)CC4)nc4c3ncn4C(C)C)cc2)c1`: the IC50 was 350 nM in experiment [1] and 150 nM in experiment [2]. For `CC(C)n1cnc2c(NCc3ccc(-c4ccccc4Cl)cc3)nc(N[C@H]3CC[C@H](N)CC3)nc21`, in that order: 1000 nM and 600 nM. The corresponding values for `CC(C)n1cnc2c(NCc3ccc(-c4ccccc4)cc3)nc(N[C@H]3CC[C@H](NS(=O)(=O)C(F)(F)F)CC3)nc21` are over 5000 nM and over 5000 nM. For `N[C@H]1CC[C@H](Nc2nc(NCc3ccc(-c4ccccc4)cc3)c3ncn(C4CCCC4)c3n2)CC1`, in that order: 100 nM and 90 nM. Turning to `CC(C)n1cnc2c(NCc3ccc(-c4ccccc4)cc3)nc(NCCCN)nc21`, the IC50 in experiment [1] amounted to 3000 nM; in experiment [2] it was 400 nM.

On to `CC(C)n1cnc2c(NCc3ccc(-c4ccccc4)cc3)nc(NCCN)nc21`, for which the figures for the IC50 in experiment [1] and in experiment [2] were 600 nM and 500 nM, respectively. The corresponding values for `CCN[C@H]1CC[C@H](Nc2nc(NCc3ccc(-c4ccccc4)cc3)c3ncn(C(C)C)c3n2)CC1` are 3000 nM and 1000 nM. For `Cc1cc(C)cc(-c2ccc(CNc3nc(N[C@H]4CC[C@H](N)CC4)nc4c3ncn4C(C)C)cc2)c1`, in that order: 400 nM and 200 nM. The corresponding values for `CC(C)n1cnc2c(NCc3ccc(-c4ccccc4)cc3)nc(N[C@@H]3CCCC[C@@H]3N)nc21` are 900 nM and 400 nM. For the molecule `CC(C)n1cnc2c(NCc3ccc(-c4ccccc4)cc3)nc(NC3CCCC(N)C3)nc21` (centres undefined), the IC50 in experiment [1] was found to be 1000 nM; in experiment [2] it was 900 nM. For `CC(C)n1cnc2c(NCc3ccc(-c4ccccc4)cc3)nc(N[C@H]3CC[C@H](NC(=O)CC4CC4)CC3)nc21`, in that order: 600 nM and 300 nM.

Take `CC(C)n1cnc2c(NCc3ccc(-c4ccccc4)cc3)nc(N[C@H]3CC[C@H](NCC4CC4)CC3)nc21`: the results for the IC50 in experiment [1] and in experiment [2] were 900 nM and 300 nM, respectively.

In the case of `Cn1cnc2c(NCc3ccc(-c4ccccc4)cc3)nc(N[C@H]3CC[C@H](N)CC3)nc21`, the IC50 in experiment [1] was 1000 nM; in experiment [2], 800 nM.

With `CC(C)n1cnc2c(NCc3ccc(-c4ccccc4)cc3)nc(NC[C@H](C)N)nc21`, the IC50 turned out to be 2000 nM in experiment [1] and 900 nM in experiment [2].

In the case of `Cc1cccc(-c2ccc(CNc3nc(N[C@H]4CC[C@H](N)CC4)nc4c3ncn4C(C)C)cc2)c1`, the IC50 in experiment [1] worked out at 300 nM; in experiment [2], 200 nM. Molecule `CC[C@H](CO)Nc1nc(NCc2ccccc2)c2ncn(C(C)C)c2n1` [SELICICLIB] showed a concentration for 50% growth inhibition (GI50) in experiment [3] of 20000 nM. As for `CC(C)n1cnc2c(NCc3ccc(-c4ccccc4)cc3)nc(N[C@H]3CC[C@H](O)CC3)nc21`, the IC50 in experiment [1] and in experiment [2] was 400 nM throughout. As to `CC(C)n1cnc2c(NCc3ccc(-c4ccccc4)cc3)nc(NC3(CO)CCCC3)nc21`, the IC50 in experiment [1] came to 2000 nM; in experiment [2], 600 nM. The corresponding values for `CCC(=O)N[C@H]1CC[C@H](Nc2nc(NCc3ccc(-c4ccccc4)cc3)c3ncn(C(C)C)c3n2)CC1` are 500 nM and 200 nM.

`CCN(CC)[C@H]1CC[C@H](Nc2nc(NCc3ccc(-c4ccccc4)cc3)c3ncn(C(C)C)c3n2)CC1`: the IC50 in experiment [1] is 6000 nM; in experiment [2], 3000 nM. For `CCCCN[C@H]1CC[C@H](Nc2nc(NCc3ccc(-c4ccccc4)cc3)c3ncn(C(C)C)c3n2)CC1`, in that order: 1000 nM and 300 nM.

For the molecule `CC(C)n1cnc2c(NCc3ccc(-c4ccccc4)cc3)nc(NC[C@H](C)NC(=O)OC(C)(C)C)nc21`, the figures for the IC50 in experiment [1] and in experiment [2] were 1000 nM and 800 nM, respectively. Turning to `CC[C@H](CO)Nc1nc(NCc2ccc(-c3ccccc3)cc2)c2ncn(C(C)C)c2n1`, in experiment [3], growth was halved (GI50) at 400 nM. As to `CC(C)n1cnc2c(NCc3ccc(-c4ccccc4)cc3)nc(N3CCC(C(N)=O)CC3)nc21`, the half-inhibitory concentration (IC50) in experiment [1] and in experiment [2] was over 5000 nM throughout.

Regarding `CC(C)n1cnc2c(NCc3ccc(-c4ccccc4)cc3)nc(NCC3CCNCC3)nc21`, the IC50 in experiment [1] is 4000 nM; in experiment [2] it was 2500 nM. Molecule `Cn1cnc2c(NCc3ccccc3)nc(NCCO)nc21` [OLOMOUCINE] yielded a GI50 in experiment [3] of 65000 nM. For `CC(C)n1cnc2c(NCc3ccc(-c4ccccc4)cc3)nc(N3CCC(N)C3)nc21` (centres undefined), the IC50 in experiment [1] and in experiment [2] was 3000 nM each time.

Turning to `CCCN[C@H]1CC[C@H](Nc2nc(NCc3ccc(-c4ccccc4)cc3)c3ncn(C(C)C)c3n2)CC1`, the IC50 in experiment [1] was determined as 500 nM; in experiment [2] it was 400 nM. `CC(C)n1cnc2c(NCc3ccc(-c4ccccc4)cc3)nc(NCCCCN)nc21`: the IC50 in experiment [1] and in experiment [2] was 3000 nM throughout. In the case of `Cc1ccc(-c2ccc(CNc3nc(N[C@H]4CC[C@H](N)CC4)nc4c3ncn4C(C)C)cc2)cc1C`, the IC50 was found to be 500 nM in experiment [1] and 250 nM in experiment [2]. For `CC(=O)N[C@H]1CC[C@H](Nc2nc(NCc3ccc(-c4ccccc4)cc3)c3ncn(C(C)C)c3n2)CC1`, in that order: 500 nM and 300 nM. `CC(C)n1cnc2c(NCCc3ccc(-c4ccccc4)cc3)nc(N[C@H]3CC[C@H](N)CC3)nc21` gave a GI50 in experiment [3] of 5000 nM. Moreover, the IC50 in experiment [1] came out at 1000 nM; in experiment [2], 800 nM. As to `Cc1ccc(-c2ccc(CNc3nc(N[C@H]4CC[C@H](N)CC4)nc4c3ncn4C(C)C)cc2)cc1`, the IC50 is 400 nM in experiment [1] and 200 nM in experiment [2]. The corresponding values for `CC(C)n1cnc2c(NCc3ccc(-c4ccccc4)cc3)nc(N3CCC(CN)CC3)nc21` are 4000 nM and 1000 nM. For `CC(Nc1nc(N[C@H]2CC[C@H](N)CC2)nc2c1ncn2C(C)C)c1ccc(-c2ccccc2)cc1` (some centres undefined), in that order: 5000 nM and 4000 nM. The corresponding values for `CC(C)n1cnc2c(NCc3ccc(-c4ccccc4)cc3)nc(N[C@@H]3CCCC[C@H]3N)nc21` are 2000 nM and 900 nM. Turning to `CC(C)n1cnc2c(NCc3ccc(-c4ccccc4)cc3)nc(N[C@H]3CC[C@H](NS(C)(=O)=O)CC3)nc21`, the values for the IC50 in experiment [1] and in experiment [2] were 500 nM and 200 nM, respectively.

As usually defined, the IC50 is the concentration at which inhibition is half-maximal. As a reminder, the GI50 is the concentration that inhibits growth by half. Low readings indicate greater sensitivity of the cells, high ones lower sensitivity of the cells.
